In data set [1] the test system is syngeneic pancreatic tumors established with orthotopic injection of KPC1361 cells. As to the kind of experiment: Orthotopic KPC1361 pancreatic tumor model with anti-PD-1. Type of data set: in vivo, mice. The following applies: apilimod 60 mg/kg, ESK981 30 mg/kg oral gavage. An excerpt:
FIG. 8B is a line graph of the efficacy of α-PD1 in combination with apilimod or ESK981 against pancreatic tumors from orthotopically injected KPC1361 cells to mice.
FIG. 8C (Left) is a line graph of flow cytometry measuring surface expression of MHC-I on GPF-labelled cancer cells in pancreatic tumors treated with α-PD1 in combination with apilimod or ESK981; (Right) is a bar graph of quantification of flow cytometry measuring surface expression of MHC-I on GPF-labelled cancer cells in pancreatic tumors treated with α-PD1 in combination with apilimod or ESK981.
FIG. 8D (left) is a series of 3 images of flow cytometry measuring the amount of total CD8^+ T cells, and proportion of activated or proliferative CD8^+ T cells in pancreatic tumors treated with α-PD1 in combination with apilimod or ESK981; (Right) are bar graphs of flow cytometry quantification of the amount of total CD8^+ T cells, and proportion of activated or proliferative CD8^+ T cells in pancreatic tumors treated with α-PD1 in combination with apilimod or ESK981.
FIG. 9A is a line graph of the survival of pancreatic tumor bearing mice, orthotopically injected with KPC1361 cells and treated with an immune checkpoint inhibitor, apilimod, or ESK981 individually, or in combination with each other.
All experimental protocols were conducted after approval by the U-M Institutional Animal Care & Use Committee. […] KPC1361 cells were resuspended in PBS, 1:1 (v/v) mixed with Matrigel (BD Biosciences; catalog #: 354248), and orthotopically injected to the pancreases at 250,000 cells in a total volume of 50 μl per injection. B16-F10 cells were resuspended in PBS and injected subcutaneously to both flanks at 400,000 cells per injection. For ACT study, B16-F10-OVA cells were resuspended in PBS and injected subcutaneously to both flanks at 300,000 cells per injection. For lung metastasis experiment, B16-BL6 cells were resuspended in PBS, 1:1 (v/v) mixed with Matrigel and injected subcutaneously to both flanks at 400,000 cells per injection. Fifteen days after tumor cell inoculation, the primary tumors were removed surgically under anesthesia. Thirty-five days after removal of the primary tumors, lung tissues were extracted and fixed, and lung metastasis was quantified. C57BL/6 mice were acquired from The Jackson Laboratory. Measurement of tumor volume began 5-9 days post tumor cell implantation and was performed 2-3 times per week using calipers. Volume measurements of pancreatic tumors were also achieved with calipers, as reported See, e.g., Koikawa, K. et al., Cell 2021; 184(18):4753-4771. In brief, mice were subjected to anesthesia with 2-3% isoflurane, and the abdominal wall then became soft and loose. […] Volume (mm^3) of tumor was calculated using (W^2×L)/2, where W stood for minor tumor axis and L for the major. […]

Data set [2] in a line: Body weight of treated tumor-bearing mice. It counts as in vivo. The following applies: preclinical models; single agents and in combination with immunotherapies. An excerpt: FIG. 9B is a line graph of the body weight of pancreatic tumor bearing mice, orthotopically injected with KPC1361 cells and treated with an immune checkpoint inhibitor, apilimod, or ESK981 individually, or in combination with each other.
FIG. 11A is a line graph of mice body weight treated with adoptive cell therapy (ACT) in combination with apilimod or ESK981.
FIG. 11B is a line graph of mice body weight treated with personalized vaccines in combination with apilimod or ESK981

Data set [3] deals with KPC1361 (pancreas), B16-F10 (melanoma), 4T1 (breast), and MyC-CaP (prostate). The data set is described as follows: Flow cytometry of MHC-I surface expression in murine cancer cells. Type of data set: cell-based. The following applies: with or without IFN-γ; in a dose-dependent manner. An excerpt:
FIG. 1E (Left) is line graphs of flow cytometry measuring MHC-I surface expression in KPC1361 cells, stimulated with or without IFN-γ, treated with DMSO, Apilimod, or ESK981; (Right) are bar graphs of quantification of flow cytometry measuring MHC-I surface expression in KPC1361 cells, stimulated with or without IFN-γ, treated with DMSO, Apilimod, or ESK981.
FIG. 2A (Left) is line graphs of flow cytometry measuring MHC-I surface expression in MyC-CaP cells, stimulated with or without IFN-γ, treated with DMSO, Apilimod, or ESK981; (Right) is a bar graph of quantification of flow cytometry measuring MHC-I surface expression in MyC-CaP cells, stimulated with or without IFN-γ, treated with DMSO, Apilimod, or ESK981.
Cancer cells or the OVA-expressing cancer cells treated in vitro were harvested from dishes, resuspended in buffer MACS (PBS containing 2% FBS and 2 mM EDTA), and stained with Zombie NIR™ Fixable Viability kit (BioLegend: #423106) and fluorophore-conjugated antibody against MHC-I or PE-conjugated antibody against SIINFEKL bound H-2Kb (BioLegend; catalog #141604), respectively. The cells were next washed twice with 1 ml MACS and fixed with 2% paraformaldehyde in PBS for 15 minutes at room temperature. The cells were then subjected to the flow cytometer (SONY SH800S) for measuring surface expression of MHC-I or SIINFEKL bound H-2Kb, respectively. […]

Regarding `CC(C)Cn1c2ccc(Nc3ncccn3)cc2c2c3c(c4c(c21)CCc1nn(C)cc1-4)C(=O)NC3` [ESK981, 13-isobutyl-4-methyl-10-(pyrimidin-2-ylamino)-1,2,4,7,8,13-hexahydro-6H-indazolo[5,4-a]pyrrolo[3,4-c]carbazol-6-one], in data set [1], the “intratumoral activated CD8+ T cells” value was “increase” and the “tumor-specific MHC-I surface expression” value is recorded as “upregulation”. Further, in data set [2], the safety profile result is “favorable safety profiles”. Besides, the “constitutive and induced surface expression of MHC-I” value in data set [3] was “upregulated”.
As for `Cc1cccc(/C=N/Nc2cc(N3CCOCC3)nc(OCCc3ccccn3)n2)c1` [apilimod, N-[(E)-(3-methylphenyl)methylideneamino]-6-morpholin-4-yl-2-(2-pyridin-2-ylethoxy)pyrimidin-4-amine], in data set [1], the “intratumoral activated CD8+ T cells” value is on record as “increase” and the “tumor-specific MHC-I surface expression” value is listed as “upregulation”. Also, the safety profile result in data set [2] is “favorable safety profiles”. Also, in data set [3], the “constitutive and induced surface expression of MHC-I” value was “upregulated”.

(Values after patent US20250144107A1, “USE OF A PIKFYVE INHIBITOR IN COMBINATION WITH IMMUNOTHERAPY” (The Regents of the University of Michigan, priority 2023, published 2025).)
